The source of these data is patent publication US5047340A, “LAC+ saccharomyces cerevisiae” (The University of Kentucky Research Foundation, priority 1988, dated 1991).

“And” between values parts separate entries of the source, which are not always exact repeats. Identical values can stand only once.

For test [1], the system named is lactose transport in K. lactis MS425/pKR1B. In words: Lactose transport ([14C]lactose uptake) in K. lactis. Format: cell-based. As to the method: (§1) After warming the cells to 23° C. the competing compound was added to a final concentration of 50 mM. Thirty seconds later [^14 C] lactose was added to a final concentration of 1 mM and 100 μl samples were filtered 1 and 2 minutes later. […] For K. lactis the experiment was done twice and for S. cerevisiae it was done three times. Averaged values with or without a standard deviation are shown.
(§2) Finally, the lactose transport in LAC^+ S. cerevisiae was determined to be an energy-dependent process, as it is in K. lactis. To measure energy dependence, cells were pre-incubated for 20 minutes with 1 mM 2,4-dinitrophenol at ambient temperature.
(§3) The kinetics of lactose transport were measured to determine if Lac^+ S. cerevisiae transported measurable quantities of lactose and to determine the time scale over which the apparent initial velocity of transport could be measured. Lactose transport was measured using the following procedure. Saturated cultures of cells were obtained by growth at 30° C. in medium A: 10 g yeast extract, 20 g peptone, 100 ml of 20% lactic acid (titrated to pH 4.5 with solid sodium hydroxide) and 100 ml of 20% glycerol per liter, or medium B: 3.4 g yeast nitrogen base (Difco, without amino acids or ammonium sulfate), 10 g ammonium sulfate, 3 g 20 mg adenine, 20 mg uracil, 20 mg leucine, 20 mg histidine, 20 mg tryptophan, 20 mg methionine and 20 mg lysine per liter. Strain MS425/pKR1B of K. lactis was grown on medium A containing 10 μg G418/ml, while S. cerevisiae strains L1582/pKR1B, and YNN27/pKR1B were grown on the same medium containing 200 μg […] Strains L1582 or YNN27 transformed with either plasmid A, B, or C (autonomous or integrated) were grown on medium B.
(§4) This procedure is a modification of the procedure described by Serrano, R. (1977) European J. of Biochem. 80:97-10^2. To prepare cells for transport measurements, a saturated culture was diluted into fresh medium and grown from […]. Cells were harvested by filtration (45 mm dia, 0.45 μm Millipore type HA), washed four times with 10 ml of ice cold distilled water, and then resuspended in 100 mM tartaric acid (titrated to pH 4.2 with sodium hydroxide) at 60 to 100 A600 /ml. At this point cells could be stored at 4° C. for up to 24 hours without loss of transport activity.
(§5) To measure lactose transport, a sample of cells, 0.3 to 1.0 ml, was warmed to 23° C. for 2 min, lactose was added to the desired concentrations and at zero time 0.luCi of D-Glucose-[^14C ]lactose (CFA 278; 58 mCi/mM; Amersham Corp., Lexington, Mass.) was added per 0.3 ml of cells. At the indicated times 100 μl samples were filtered on 25 mm diameter Nuclepore filters (0.4μm pore size; Nuclepore Corp., Pleasanton, Cal.). The filter was washed twice with 5 ml of ice cold distilled water, dried and counted in 4 ml of a toluene-based cocktail containing 250 ml of triton X-100 and 6.5 g p-terphenyl per liter using a liquid scintillation counter. The specific activity, cpm/pmole of lactose, of each reaction was determined by counting a 10 μl sample. Data are expressed as pmoles of intracellular lactose per A600. Background transport was measured using cells that were heated for 3 min at 90° C. Typical background was 25 to 30 cpm.
The lactose transport in Lac^+ S. cerevisiae was determined to be an energy-dependent process, as it is in K. lactis. To measure energy dependence, cells were pre-incubated with 1 mM […] for 20 minutes at ambient temperature and then the uptake of 1 mM ^14 C-lactose was measured. Lactose transport was inhibited 91% both in the Lac^+ strain of S. cerevisiae , L1582/pKR1B-LAC4-1, and in the K. lactis strain MS425/pKR1B.

The subject of test [2] is lactose transport in S. cerevisiae L1582/pKR1B-LAC4-1. The test is described as follows: Lactose transport ([14C]lactose uptake) in Lac+ S. cerevisiae. Format: cell-based. As to conditions: for inhibition of lactose transport (stereospecificity, in words): summary of Table 1 (L1582/pKR1B-LAC4-1 and K. lactis). As to the method: The rate of lactose transport as a function of substrate concentration is shown for two experiments using Lac^+ L1582/pKR1B-LAC4-1 (.smallcircle.--.smallcircle.) and Lac^+ L1582/pKR1B-LAC4-Δ1087(.quadrature.--.quadrature.). For each concentration of lactose, the rate of transport represented the average of samples taken at 30, 60, and 90 seconds.
as §1, §2, §3, §4, §5
The lactose transport in Lac^+ S. cerevisiae was determined to be an energy-dependent process, as it is in K. lactis. To measure energy dependence, cells were pre-incubated with 1 mM […] for 20 minutes at ambient temperature and then the uptake of 1 mM ^14 C-lactose was measured. […]

The mark [3] stands for this setting: Kluyveromyces lactis, competing compound 50 mM, [14C]lactose 1 mM, 23° C., samples at 1 and 2 minutes, average of two experiments.
[4] abbreviates: Saccharomyces cerevisiae, competing compound 50 mM, [14C]lactose 1 mM, 23° C., samples at 1 and 2 minutes, average of three experiments with standard deviation.
Setting [5] is: pre-incubated 20 minutes with 1 mM at ambient temperature.

In general, Km refers to the substrate concentration at which the rate is half of its maximum. For the compound `OC[C@H]1O[C@@H](O[C@H]2[C@H](O)[C@@H](O)C(O)O[C@@H]2CO)[C@H](O)[C@@H](O)[C@H]1O` (stereo partly drawn) [lactose, 4-0-beta-D-galactosyl-D-glucose], the Km in test [1] (K. lactis strain MS425, read-out: apparent Km for lactose transport, K. lactis strain MS425) was 670 µM; in test [2] (two experiments of FIG. 4: Lac+ L1582/pKR1B-LAC4-1 and Lac+ L1582/pKR1B-LAC4-Δ1087, rates averaged from 30, 60 and 90 seconds, read-out: apparent Km for lactose transport, Lac+ S. cerevisiae), 970 µM and 1090 µM.
Take `O=C[C@@H](O)[C@H](O[C@@H]1O[C@H](CO)[C@H](O)[C@H](O)[C@H]1O)[C@H](O)CO` [3-0-β-D-galactosyl-D-arabinose]: the “% Inhibition of Lactose Transport, K. lactis MS425/pKR1B” value in test [1] (competing compound 50 mM, [14C]lactose 1 mM, 23° C., samples at 1 and 2 minutes, average of two experiments) came out at 93%. Besides, in test [2] (competing compound 50 mM, [14C]lactose 1 mM, 23° C., samples at 1 and 2 minutes, average of three experiments with standard deviation), the “% Inhibition of Lactose Transport, S. cerevisiae L1582/pKR1B-LAC4-1” value worked out at 90 ± 6%. For the same compound, the “inhibition of lactose transport (stereospecificity, in words)” value (shortened to “inhibition … (stereospecificity, in words)”) in test [2] is given as “strongest inhibition”.
`O=C[C@H](O)[C@@H](O)[C@@H](O)[C@H](O)CO` [D-galactose]: the inhibition at 50000 µM in test [1] (setting [3]) was determined as 26%; in test [2] (setting [4]) it was 24.3 ± 7.2%. Also, in test [2], the “inhibition … (stereospecificity, in words)” value is given as “only moderate inhibition”.
As for `O=[N+]([O-])c1ccc(O)c([N+](=O)[O-])c1` [2,4-dinitrophenol], the inhibition at 1000 µM in test [1] (Kluyveromyces lactis, read-out: Lactose transport inhibited (energy dependence), K. lactis MS425/pKR1B) turned out to be 91%; in test [2] (Saccharomyces cerevisiae, read-out: Lactose transport inhibited (energy dependence), S. cerevisiae L1582/pKR1B-LAC4-1), 91%. Also, the “Lactose transport inhibition in words (energy dependence), K. lactis MS425/pKR1B” value in test [1] (setting [5]) is “inhibited almost completely”. Besides, in test [2] (setting [5]), the “Lactose transport inhibition in words (energy dependence), S. cerevisiae L1582/pKR1B-LAC4-1” value is reported as “inhibited almost completely”.
Regarding `OC[C@H]1O[C@@H](S[C@@H]2O[C@H](CO)[C@H](O)[C@H](O)[C@H]2O)[C@H](O)[C@@H](O)[C@H]1O` [D-galactosyl-1-thio-β-D-galactoside], the inhibition at 50000 µM came to 28% in test [1] (setting [3]) and 4.9 ± 4% in test [2] (setting [4]). In test [2], the “inhibition … (stereospecificity, in words)” value is given as “only moderate inhibition”.
With `O=[N+]([O-])c1ccc(O[C@H]2O[C@H](CO)[C@H](O)[C@H](O)[C@H]2O)cc1` [4-nitrophenyl-α-D-galactoside], the “inhibition … (stereospecificity, in words)” value in test [2] is “inhibited only weakly”.
For `OC[C@H]1O[C@H](OC[C@H]2OC(O)[C@H](O)[C@@H](O)[C@@H]2O)[C@H](O)[C@@H](O)[C@H]1O` (stereo partly drawn) [6-0-α-D-galactosyl-D-glucose], the inhibition at 50000 µM in test [1] (setting [3]) amounted to 10%; in test [2] (setting [4]), 10.7 ± 8%. In test [2], the “inhibition … (stereospecificity, in words)” value is “inhibited only weakly”.
